Data published in a melting point compilation (Tetko et al.).

Compound `CC(=O)N1CCC(c2c[nH]c3ccccc23)CC1` has a melting point of 174 to 176 °C.

`C=CC/C=C/C` showed a melting point of -139 °C.

For `N#Cc1c(F)cccc1-n1cccc1`, the melting point was 67 to 69 °C.

Work on `CCCCNC(=O)c1ccc2cc(O)c(O)cc2c1` yielded a melting point of 194 °C.

Compound `Brc1ccc(Oc2ccccc2)cc1Br` has a melting point of less than 20 °C.

For `O=C(OCc1ccccc1)N1c2ccccc2CC1CO` (stereo not given), the melting point was 67 to 71 °C.

Work on `O=C(NC(Cc1ccccc1)C(=O)CCl)OCc1ccccc1` (stereo not given) yielded a melting point of 107 to 108 °C.

In the case of `Cc1[nH]nc(Cl)c1[N+](=O)[O-]`, the melting point is reported as 111 °C.

`O=P1(O)Oc2ccc3ccccc3c2-c2c(ccc3ccccc23)O1` gave a melting point of 320 °C.

`Nc1ccc(C(O)(C(F)(F)F)C(F)(F)F)cc1` showed a melting point of 150 °C.

For `Cc1cccc(C=CC(=O)O)c1`, the melting point was 116 to 119 °C.

`C=C(C)C1(O)C2OC(=O)C1C1(O)C3OC3C3(CO3)C1(C)C2O` (stereo not given) showed a melting point of 225 °C.

Compound `NC(=O)C1CC1(Cl)Cl` (stereo not given) has a melting point of 148 to 149 °C.

`O=[N+]([O-])c1cccnc1Cl` showed a melting point of 101 °C.

Work on `O=c1[nH]c2scc(-c3ccccc3)c2c(=O)n1-c1cccc(Cl)c1` yielded a melting point of 269 to 270 °C.

`Cc1cccc(OCC(=O)O)c1C` gave a melting point of 186 to 190 °C.

`O=S(=O)(Cl)c1cc2ccccc2o1` gave a melting point of 79 to 81 °C.

Work on `O=Cc1ccc(Sc2ccc(Cl)cc2)c([N+](=O)[O-])c1` yielded a melting point of 120 °C.

In the case of `CCCOC(=O)c1cc(O)c(O)c(O)c1`, the melting point is reported as 148 °C.

Work on `Cc1ccc(N=Nc2ccc(C)cc2)cc1` yielded a melting point of 140 °C.

Work on `CCOC(=O)N1CCC2(CC1)C(=O)N(CO)CN2c1ccccc1` yielded a melting point of 134 to 139 °C.

In the case of `C[Si](N[Si](C)(c1ccccc1)c1ccccc1)(c1ccccc1)c1ccccc1`, the melting point is reported as 91 °C.

In the case of `CCOC(=O)C=Cc1ccccc1N`, the melting point is reported as 76 to 77 °C.

`O=[N+]([O-])C=Cc1c(F)cccc1Cl` gave a melting point of 63 °C.

Compound `COc1cc(-c2coc3cc(O)c(OC)c(O)c3c2=O)cc(O)c1OC` has a melting point of 185 °C.

Compound `N#CC1C(=N)Oc2c(c(=O)oc3ccccc23)C1c1ccc(Br)cc1` (stereo not given) has a melting point of 254 °C.

In the case of `CC(C)c1c(C(=O)Nc2ccccc2)c(-c2ccccc2)c(-c2ccc(F)cc2)n1CCC(O)CC(O)CC(=O)O` (stereo not given), the melting point is reported as 160 °C.

In the case of `COc1cc(C(=O)Cc2ccccc2)c([N+](=O)[O-])cc1OC`, the melting point is reported as 152 °C.

Compound `COC(=O)c1ccc(C(=O)OC)c(Br)c1` has a melting point of 52 to 54 °C.

In the case of `Cn1ccc2ccc(C(=O)O)cc21`, the melting point is reported as 197 °C.

Work on `CCCc1c(NCC)ccc(C(C)=O)c1O` yielded a melting point of 45 to 48 °C.

Compound `Cc1ccc(F)cc1N` has a melting point of 39 °C.

Compound `O=C(O)C1=CCCC1` has a melting point of 119 °C.

With `O=C1C2CCC1C1CCC2O1` the melting point was 81 °C.

Compound `COc1cc2c(c(O)c1OC)CNCC2` has a melting point of 188 °C.

For `CC(C)NCC(O)c1ccc2ccccc2c1` (stereo not given), the melting point was 108 °C.

In the case of `Cc1ccc2cnn(C)c2n1`, the melting point is reported as 184 °C.

`O=C(c1ccncc1)c1ccc(Cl)cc1` showed a melting point of 108 °C.

`CC(=O)Nc1cc([N+](=O)[O-])c(F)cc1F` gave a melting point of 146 to 148 °C.

For `CC1(C)C2CCC1(C)C(/N=C(\C(=O)c1ccccc1)c1ccccc1)C2/N=C(\C(=O)c1ccccc1)c1ccccc1` (stereo not given), the melting point was 190 °C.

With `C(=NN=Cc1ccccc1)c1ccccc1` the melting point was 93 °C.

`CSc1nc2[nH]c(=S)n(-c3ccccc3)c(=O)c2n1C` showed a melting point of 268 to 270 °C.

`BrCCC(Br)CBr` (stereo not given) showed a melting point of -18 °C.

Work on `COc1ccc(Cl)cc1C#N` yielded a melting point of 100 °C.

Compound `COc1ccc(OCC(O)CN)cc1` (stereo not given) has a melting point of 110 to 112 °C.

Compound `CCCNC(=O)COC(=O)c1ccccc1` has a melting point of 89.5 °C.

For `CC(=O)OC(C)=O`, the melting point was -73 °C.

`CC(=NO)c1ccc2c(c1)CC(C)O2` (stereo not given) showed a melting point of 83 to 85 °C.

For `COC(=O)c1ccc(OCNC(=O)c2ccccc2)cc1`, the melting point was 142 to 143 °C.

Compound `Cn1nc(-c2ccccc2)cc1C(=O)O` has a melting point of 186 to 187 °C.

`NC(Cc1c[nH]c2ccc(Br)cc12)C(=O)O` (racemic) showed a melting point of 261 to 267 °C.

Work on `CC(C)(C)NCC(O)c1cc(O)cc(O)c1` (stereo not given) yielded a melting point of 119 °C.

Compound `Cc1ccc2cc(F)ccc2n1` has a melting point of 54 °C.

`O=C(NCc1ccc(Cl)cc1)c1cc([N+](=O)[O-])cc([N+](=O)[O-])c1` gave a melting point of 200 to 202 °C.

Compound `CC1(C)OCC2OC3(C(=O)O)OC(C)(C)OC3C2O1` (stereo not given) has a melting point of 92 °C.

`O=C(Cc1ccccc1)c1ccc(O)cc1O` showed a melting point of 112 to 117 °C.

For `NNC(=O)c1ccc(F)cc1F`, the melting point was 141 to 142 °C.

`CC12CCC3C(C(=O)CC4CC(O)(C(Cl)(Cl)Cl)CCC43C)C1CCC2=O` (stereo not given) gave a melting point of 248 to 254 °C.

Work on `COC(=O)c1scc(S(C)(=O)=O)c1-n1cccc1` yielded a melting point of 124 to 126 °C.

For `O=C(CCl)c1ccc(F)cc1`, the melting point was 48 °C.

`CCCCCCCc1ccc(NC(=O)c2ccc(CC)cc2)cc1` gave a melting point of 102 °C.

`ClC(Cl)C(Cl)(Cl)C(Cl)(Cl)Cl` gave a melting point of 29.4 °C.

`NC(=O)C1CO1` (stereo not given) gave a melting point of 33 °C.

In the case of `O=S(=O)(O)NC1CCCCC1`, the melting point is reported as 170 °C.

For `O=c1c2ccccc2cc2n1CCc1ccccc1-2`, the melting point was 101 °C.

`CN(C)c1ccc(-c2c(C#N)c(N)n(N)c(=O)c2C#N)cc1` gave a melting point of 328 to 330 °C.

Work on `CC(=O)c1cc(C)c(C)cc1O` yielded a melting point of 69 to 73 °C.

Work on `C=C(C)C(=O)OC1CC2CCC1(C)C2(C)C` (stereo not given) yielded a melting point of -60 °C.

`CC(=O)N(C)C(C)=O` gave a melting point of -25 °C.

For `CS[C@H]1C(=O)[C@@H]2CC[C@]3(C)[C@@H](OC(C)(C)C)CC[C@]13[C@H]2Cl`, the melting point was 108 °C.

`CC(=O)c1cc(OC(F)(F)F)ccc1O` gave a melting point of 30 °C.

In the case of `Cc1nnc(Sc2ccc(C=O)o2)n1C`, the melting point is reported as 143 to 147 °C.

`CC1=CCC(C)C1=NNc1ccc([N+](=O)[O-])cc1[N+](=O)[O-]` (stereo not given) showed a melting point of 198 °C.

Compound `Cc1cc(Cl)ccc1OCCCC(=O)O` has a melting point of 100 °C.

`N#Cc1ccc(Cl)c(Cl)c1` gave a melting point of 72 °C.

Compound `CC(=O)c1cc2cc(Cl)cc(Cl)c2oc1=O` has a melting point of 172 to 174 °C.

Work on `O=C(Oc1c(F)c(F)c(F)c(F)c1F)c1ccc(-c2cccs2)nc1` yielded a melting point of 140 to 142 °C.

In the case of `CCC(C)C(C)(COC(N)=O)COC(N)=O` (stereo not given), the melting point is reported as 77 °C.

Compound `ClCOc1ccc(Cl)cc1` has a melting point of 29 to 30 °C.

Work on `On1nnc2ccc(Cl)cc21` yielded a melting point of 197 °C.

Compound `O=C(Br)C(=O)Br` has a melting point of -19 °C.

`Cc1ccc(S(=O)(=O)OCCOCCOCCOS(=O)(=O)c2ccc(C)cc2)cc1` showed a melting point of 80 to 82 °C.

`OCCOc1ccc(OCCO)cc1` gave a melting point of 104 to 107 °C.

`Nc1ncnc2c1ncn2C1OC2COP(=O)(O)OC2C1O` (stereo not given) gave a melting point of 260 °C.

Work on `Clc1ccc2c(Cl)ccnc2c1` yielded a melting point of 93 °C.

Compound `Oc1ccc(O)c2c1C1CCC2C1` has a melting point of 172 to 178 °C.

In the case of `COc1ccc(C=CC(=O)C=Cc2ccc(OC)cc2)cc1`, the melting point is reported as 129 °C.

`Cc1ccc(C(=O)O)cc1O` showed a melting point of 210 °C.

Compound `c1ccc(-c2nc3ccccc3nc2-c2ccc3ccccc3c2)cc1` has a melting point of 121 to 122 °C.

`c1ccc2c(c1)ccc1c3ccccc3ccc21` showed a melting point of 258 °C.

Work on `Cn1nc2ccccc2c1C(=O)Cl` yielded a melting point of 89 to 90 °C.

With `Cn1ccsc1=NC(=O)c1ccccc1` the melting point was 114 °C.

Work on `COc1cc(I)cc(C=O)c1O` yielded a melting point of 129 °C.

Work on `Nc1cc(F)c(F)cc1C(=O)O` yielded a melting point of 182 °C.

For `Cc1nc(-c2ccccc2)sc1C(=O)O`, the melting point was 214 to 215 °C.

In the case of `C1CNCCNCCNCCN1`, the melting point is reported as 108 to 113 °C.

In the case of `Clc1cc2c(Cl)cccc2c(Cl)c1Cl`, the melting point is reported as 141 °C.

With `O=C(NCCO)C1CCCNC1` (stereo not given) the melting point was 119 °C.

Work on `O=C(O)c1csnn1` yielded a melting point of 233 to 235 °C.

`Oc1ccccc1[C@H]1C[C@H](c2ccccc2)Sc2ccccc2N1` gave a melting point of 89.8 °C.

Compound `Fc1c(F)c(F)c(CBr)c(F)c1F` has a melting point of 19 °C.

For `CC(C)Oc1cccc(NC(=O)c2ccccc2C(F)(F)F)c1`, the melting point was 105 °C.

In the case of `Cc1ccc(C)c2c1C(=O)OC2=O`, the melting point is reported as 195 °C.

Compound `CC12Cc3nonc3CC1CCC1C2CCC2(C)C1CCC2(C)O` (stereo not given) has a melting point of 152 °C.

For `CCCc1c(C)nc(NC(=O)NS(=O)(=O)c2cccs2)nc1O`, the melting point was 210 to 212 °C.

With `CCOc1ccccc1NC(C)=O` the melting point was 79 °C.

For `COc1cc(C=O)ccc1OCc1c(F)cccc1Cl`, the melting point was 124 to 126 °C.

In the case of `COC(=O)C1=C(C)NC(C)=C(C(=O)OC)C1c1ccccc1`, the melting point is reported as 198 °C.

Work on `CCCC1(C)CC(=O)NC1=O` (stereo not given) yielded a melting point of 76 to 78 °C.

For `N#Cc1cc2[nH]c(=O)c(=O)[nH]c2cc1[N+](=O)[O-]`, the melting point was 300 °C.

With `ClC1=C(Cl)C(Cl)(Cl)C(Cl)(Cl)C1(Cl)Cl` the melting point was 40 °C.

Compound `CC(C)OC(=O)C(C)N(C(=O)c1ccccc1)c1ccc(F)c(Cl)c1` (stereo not given) has a melting point of 84 °C.

`CC(=C(C#N)C#N)c1ccc(Cl)cc1` gave a melting point of 93 °C.

Work on `CCOc1ccc(N)c(N)c1` yielded a melting point of 71.5 °C.

Work on `CC(C)CC(=O)C1C(=O)c2ccccc2C1=O` yielded a melting point of 68.5 °C.

`Cc1onc(-c2c(Cl)cccc2Cl)c1CC#N` showed a melting point of 75 to 78 °C.

In the case of `O=C1C=CC(=O)N1c1ccc(Cc2ccc(N3C(=O)C=CC3=O)cc2)cc1`, the melting point is reported as 155 to 159 °C.

With `Clc1ccc2c(c1)Oc1cc(Cl)c(Cl)cc1O2` the melting point was 162 °C.

Compound `N#CC(=Cc1ccccc1)C(N)=O` has a melting point of 155 °C.

For `OCc1ccc(-c2cccs2)nc1`, the melting point was 124 to 125 °C.

`COc1ccc2c(c1)C(=O)CC2` showed a melting point of 107 to 111 °C.

With `Clc1cc(Cl)c2c(c1)oc1c(Cl)cc(Cl)cc12` the melting point was 177 °C.

In the case of `O=C1CCC2CC1CCC2=O`, the melting point is reported as 151 °C.

With `COc1cc([C@@H](O)[C@H](CO)Oc2c(OC)cccc2OC)cc(OC)c1OC` the melting point was 105 °C.

In the case of `COc1cccc(C(=O)CBr)c1`, the melting point is reported as 62 °C.

In the case of `CCNC(=O)COC(=O)c1ccccc1`, the melting point is reported as 106 °C.

Compound `C/C(=N\Nc1ccccc1)c1nc2c(ccc3ccccc32)nc1C` has a melting point of 209 °C.

For `O=S(=O)(Cl)c1cc(S(=O)(=O)Cl)c(Cl)s1`, the melting point was 79 to 84 °C.

`O=C(NC(Cc1ccc(Br)s1)C(=O)O)OCC1c2ccccc2-c2ccccc21` (stereo not given) gave a melting point of 158 °C.

`Cc1c(C)n(C=O)c2ccccc12` showed a melting point of 89 °C.
